Values quoted from earlier work as cited in patent publication US20250144118A1, “MIFEPRISTONE ORAL FORM FOR ITS USE IN CERVIX RIPENING AND LABOUR INDUCTION” (NORDIC GROUP B.V., priority 2020, published 2025).

How the values were obtained:
[1] = test system: cervix of pregnant women beyond 41 weeks' gestation; conditions: 200 mg mifepristone orally, findings not statistically significant
[2] = test system: cervix of women in full-term pregnancy; conditions: clinical trial
[3] = test system: cervix of women in term pregnancies; conditions: 50, 100, 200, 400 and 600 mg of mifepristone; regardless of the dose

In the case of `CC#C[C@]1(O)CC[C@H]2[C@@H]3CCC4=CC(=O)CCC4=C3[C@@H](c3ccc(N(C)C)cc3)C[C@@]21C` [mifepristone, Mifepristone], the “Bishop score after 24 hours vs. placebo” value [1] is listed as “improve the Bishop score after 24 hours vs. placebo”, the use of prostaglandin ([1]; vs. placebo) is listed as “reduce the use of prostaglandin” and the “induction of cervical ripening and labour” value [2] is listed as “efficient on inducing cervical ripening and labour”. The efficiency vs placebo [3] was “no more effective than placebo”.
